Measured values: US6534516B1, “Androgen receptor modulator compounds and methods” (Ligand Pharmaceuticals Incorporated, priority 1996, dated 2003)
Where two headings read alike, the source gives them in different places.

Assays:
human AR [1] = biological target: T1, human AR (Homo sapiens, UniProt P10275); assay: cell-based; assay type: cell-based; settings: for EC50: read-out: AR Agonist CV-1 Cells Potency
T1 construct: expressed in transfected cells; host or cells: CV-1 cells (African green monkey kidney fibroblasts)
T1 sequence (P10275 1-920): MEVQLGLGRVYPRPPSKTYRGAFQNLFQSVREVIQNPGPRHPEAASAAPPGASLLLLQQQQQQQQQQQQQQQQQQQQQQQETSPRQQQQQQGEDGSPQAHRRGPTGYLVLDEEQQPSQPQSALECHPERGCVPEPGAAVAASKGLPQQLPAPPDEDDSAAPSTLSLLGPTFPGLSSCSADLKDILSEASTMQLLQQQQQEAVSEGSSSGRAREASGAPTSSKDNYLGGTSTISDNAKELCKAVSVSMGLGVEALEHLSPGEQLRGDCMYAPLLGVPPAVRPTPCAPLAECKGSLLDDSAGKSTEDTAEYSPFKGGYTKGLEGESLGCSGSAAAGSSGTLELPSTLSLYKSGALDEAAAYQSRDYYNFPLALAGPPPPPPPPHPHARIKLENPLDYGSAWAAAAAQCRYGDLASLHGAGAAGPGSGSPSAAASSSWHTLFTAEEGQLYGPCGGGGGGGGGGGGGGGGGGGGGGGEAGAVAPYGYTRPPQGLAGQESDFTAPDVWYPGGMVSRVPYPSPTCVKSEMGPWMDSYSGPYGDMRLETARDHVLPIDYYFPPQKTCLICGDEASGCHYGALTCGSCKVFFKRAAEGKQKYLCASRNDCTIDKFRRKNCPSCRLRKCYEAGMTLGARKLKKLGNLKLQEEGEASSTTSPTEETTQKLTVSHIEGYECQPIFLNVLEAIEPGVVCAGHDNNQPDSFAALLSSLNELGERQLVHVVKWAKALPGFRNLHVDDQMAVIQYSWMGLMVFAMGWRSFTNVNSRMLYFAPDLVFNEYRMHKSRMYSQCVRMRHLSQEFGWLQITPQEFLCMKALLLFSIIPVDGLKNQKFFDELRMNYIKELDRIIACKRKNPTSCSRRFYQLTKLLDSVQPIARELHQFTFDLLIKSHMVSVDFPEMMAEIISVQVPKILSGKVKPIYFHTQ
From the text: The co-transfection assay provides a method for identifying functional agonists and partial agonists which mimic, or antagonists which inhibit, the effect of native hormones, and quantifying their activity for responsive IR proteins. In this regard, the co-transfection assay mimics an in vivo system in the laboratory. Importantly, activity in the co-transfection assay correlates very well with known in vivo activity, such that the co-transfection assay functions as a qualitative and quantitative predictor of a tested compounds in vivo pharmacology. See, e.g., T. Berger et al. 41 J. Steroid Biochem. Molec.
CV-1 cells (African green monkey kidney fibroblasts) were cultured in the presence of Dulbecco's Modified Eagle Medium (DMEM) supplemented with 10% charcoal resin-stripped fetal bovine serum then transferred to 96-well microtiter plates one day prior to transfection.
The reporter plasmid, MTV-LUC, contains the cDNA for firefly luciferase (LUC) under control of the mouse mammary tumor virus (MTV) long terminal repeat, a conditional promoter containing an androgen response element. See e.g., Berger et al. supra. In addition, pRS-β-Gal, coding for constitutive expression of E. coli β-galactosidase (β-Gal), was included as an internal control for evaluation of transfection efficiency and compound toxicity.
Three to four replicates were used for each sample.
After 40 hours, the cells were washed with PBS, lysed with a Triton X-100-based buffer and assayed for LUC and β-Gal activities using a luminometer or spectrophotometer, respectively. For each replicate, the normalized response (NR) was calculated as:
where β-Gal rate=β-Gal•1×10^−5/β-Gal incubation time.

human AR [2] = biological target: T1, human AR; assay: cell-based; settings: read-out: AR Binding Ki
[3] = system: immature castrated male rat; assay: Immature castrated male rat model with testosterone silastic implant, ventral prostate and seminal vesicle weights; assay type: in vivo; settings: for ED50: Rattus norvegicus, 72 h; for effect on ventral prostate and seminal vesicle weights (in words): Tables 5 and 6
From the text: The activity of selected compounds of the present invention as AR antagonists was *~ investigated in an immature castrated male rat model. A recognized test of the antiandrogen activity of a given compound, as described in L. G. Hershberger et al., 83 Proc. Soc. Exptl. […] Similar approaches have been used in the rat and in hamsters. […] Dermatol.
The basis of this assay is the fact that male sexual accessory organs, such as the prostate and seminal vesicles, play an important role in reproductive function. […] See F. Labrie et al., 16 Clin. Invest. […] However, this is not a major pathway since, in both animals and humans, castration without concomitant adrenalectomy leads to almost complete involution of the prostate and seminal vesicles. […] See M. C. […] Since the male sex organs are the tissues most responsive to modulation by androgen activity, this model is used to determine the androgen-dependent growth of the sex accessory organs in immature castrated rats.
Immature male rats (50-60 g, 21 day-old Sprague-Dawley, Harlan) were castrated under metofane anesthesia. […] As a negative control, a group of castrated animals received empty 10 mm silastic implants. Animal groups were dosed for 3 days by oral gavage as follows:
At the end of the 3-day treatment, the animals were sacrificed, and the ventral prostates and seminal vesicles were collected and weighed. Organ weight data were normalized to body weight of each animal and expressed as mg/100 g body weight. Results were analyzed by analysis of variance followed by the Dunnett's test. Data were transformed to comply with the normality and variance homogeneity criteria required to utilize the analysis of variance and Dunnett's test. The following data transformations were used for the ventral prostate and seminal vesicle: square root and power 0.7 respectively. Thereafter, the data were fitted to a four-parameter logistic equation and potencies derived from the fitted estimates. The same data transformations were used for the equation-fitting phase of the data analysis.
The gain and loss of sexual organ weights reflect the changes of cell number (DNA content) and cell mass (protein content), depending upon the serum androgen concentrations. […] Therefore, measurement of organ wet weights is sufficient to indicate the bioactivity of androgens and androgen antagonists.

[4] = oral, 3 days, four-parameter logistic fit, number of experiments in parentheses, read-out: Potency (ED50) Weighted Average ± SE, Seminal Vesicle Weight
[5] = oral, 3 days, four-parameter logistic fit, number of experiments in parentheses, read-out: Potency (ED50) Weighted Average ± SE, Ventral Prostate Weight
[6] = T implant + 0.1 mg/kg oral, 3 days
[7] = T implant + 1 mg/kg oral, 3 days
[8] = T implant + 3 mg/kg oral, 3 days
[9] = T implant + 10 mg/kg oral, 3 days
[10] = T implant + 30 mg/kg oral, 3 days
[11] = T implant + 100 mg/kg oral, 3 days
[12] = antagonist mode, DHT at its EC50, % of maximal inhibition, na = not active
[13] = read-out: AR Antagonist CV-1 Cells Potency

## CCC1CCN(C(C)=O)c2cc3[nH]c(=O)cc(C(F)(F)F)c3cc21 (racemic) [Compound 123, (R/S)-1-Acetyl-4-ethyl-1,2,3,4-tetrahydro-6-(trifluoromethyl)-8-pyridono[5,6-g]quinoline]
Human AR [1]
  AR Agonist CV-1 Cells Efficacy: 91 ± 17%
  EC50: 31 ± 2 nM
Human AR [2]
  Ki: 87 nM

## CC1(C)CCc2cc3c(C(F)(F)F)cc(=O)[nH]c3cc2N1 [LG120907, 1,2,3,4-Tetrahydro-2,2-dimethyl-6-trifluoromethyl-8-pyridono[5,6-g]quinoline]
[3]; [4]
  ED50: 19.2 ± 2.8 mg/kg
[3]; [5]
  ED50: 18.3 ± 4.8 mg/kg
[3]; [6]
  Seminal Vesicles weight: 32.9 ± 1.2 (5) mg/100 g body weight
  Ventral Prostate weight: 78.5 ± 2.0 (5) mg/100 g body weight
[3]; [7]
  Seminal Vesicles weight: 28.9 ± 1.4 (5) mg/100 g body weight
  Ventral Prostate weight: 57.3 ± 1.8 (5) mg/100 g body weight
[3]; [8]
  Seminal Vesicles weight: 31.7 ± 2.9 (5) mg/100 g body weight
  Ventral Prostate weight: 66.4 ± 5.6 (5) mg/100 g body weight
[3]; [9]
  Seminal Vesicles weight: 28.2 ± 1.8 (5) mg/100 g body weight
  Ventral Prostate weight: 59.9 ± 2.7 (5) mg/100 g body weight
[3]; [10]
  Seminal Vesicles weight: 16.5 ± 0.8 (5) mg/100 g body weight
  Ventral Prostate weight: 47.4 ± 2.9 (5) mg/100 g body weight
[3]; [11]
  Seminal Vesicles weight: 10.4 ± 1.0 (5) mg/100 g body weight
  Ventral Prostate weight: 20.2 ± 2.0 (5) mg/100 g body weight

## CC(O)(CS(=O)(=O)c1ccc(F)cc1)C(=O)Nc1ccc(C#N)c(C(F)(F)F)c1 (stereo not shown) [Casodex]
[3]; po, read-out: Potency (ED50) Weighted Average ± SE, Seminal Vesicle Weight
  ED50: 7.8 ± 0.9 mg/kg
[3]; po, read-out: Potency (ED50) Weighted Average ± SE, Ventral Prostate Weight
  ED50: 7 ± 0.9 mg/kg
[3]
  effect on ventral prostate and seminal vesicle weights (in words): dose-dependent decrease

## Cn1c(=O)cc(C(F)(F)F)c2cc3c4c(c21)CCCN4CCC3 [Compound 13, 8-Methyl-11-(trifluoromethyl)-9-pyridono[6,5-i]julolidine]
Human AR [1]; [12]
  AR Antagonist CV-1 Cells Efficacy: 84 ± 6%
Human AR [1]; [13]
  IC50: 726 ± 84 nM

## Cc1c2c(cc3c(C(F)(F)F)c(F)c(=O)[nH]c13)C(C)CC(C)(C)N2C (stereo not shown) [Compound 117, 7-Fluoro-1,2,3,4-tetrahydro-1,2,2,4,10-pentamethyl-6-trifluoromethyl-8-pyridono[5,6-g]quinoline]
Human AR [1]; [12]
  AR Antagonist CV-1 Cells Efficacy: 82 ± 1%
Human AR [1]; [13]
  IC50: 394 ± 75 nM

## O=c1cc(C(F)(F)F)c2cc3c4c(c2[nH]1)CCCN4CCC3 [Compound 12, 11-(Trifluoromethyl)-9-pyridono[6,5-i]julolidine]
Human AR [1]; [12]
  AR Antagonist CV-1 Cells Efficacy: 53 ± 16 %
Human AR [1]; [13]
  IC50: 2370 ± 215 nM

## CC12CCCN1c1cc3[nH]c(=O)cc(C(F)(F)F)c3cc1CC2 (racemic) [Compound 101, (R/S)-6,7,7a,11-Tetrahydro-7a-methyl-4-trifluoromethyl-2-pyridono[5,6-g]pyrrolidino[1,2-a]quinoline]
Human AR [1]
  AR Antagonist CV-1 Cells Efficacy: 86 ± 6%
  IC50: 325 ± 68 nM

## CC1=CC(C)(C)Nc2c1cc1c(C(F)(F)F)c(F)c(=O)[nH]c1c2C [Compound 114, 7-Fluoro-1,2-dihydro-2,2,4, 10-tetramethyl-6-trifluoromethyl-8-pyridono[5,6-g]quinoline]
Human AR [1]; [12]
  AR Antagonist CV-1 Cells Efficacy: 90 ± 1%
Human AR [1]; [13]
  IC50: 203 ± 66 nM

## CC1(C)CCc2cc3c(C(F)(F)F)cc(=O)[nH]c3c([N+](=O)[O-])c2N1 [Compound 125, 1,2,3,4-Tetrahydro-2,2-dimethyl-10-nitro-6-(trifluoromethyl)-8-pyridono[5,6-g]quinoline]
Human AR [1]; [12]
  AR Antagonist CV-1 Cells Efficacy: 73%
Human AR [1]; [13]
  IC50: 1340 nM

## Cc1c2c(cc3c(C(F)(F)F)c(F)c(=O)n(C)c13)C(C)CC(C)(C)N2 (stereo not shown) [Compound 116, 7-Fluoro-1,2,3,4-tetrahydro-2,2,4,9,10-pentamethyl-6-trifluoromethyl-8-pyridono[5,6-g]quinoline]
Human AR [1]; [12]
  AR Antagonist CV-1 Cells Efficacy: 20%
Human AR [1]; [13]
  IC50: 1460 nM

## CCC1CCN(C=O)c2cc3[nH]c(=O)cc(C(F)(F)F)c3cc21 (racemic) [Compound 121, (R/S)-4-Ethyl-1-formyl-1,2,3,4-tetrahydro-6-(trifluoromethyl)-8-pyridono[5,6-g]quinoline]
Human AR [1]
  AR Agonist CV-1 Cells Efficacy: 72 ± 20%
  EC50: 150 ± 39 nM

## CC(C)C(=O)Nc1ccc([N+](=O)[O-])c(C(F)(F)F)c1 [Flutamide, 2-methyl-N-[4-nitro-3-(trifluoromethyl)phenyl]propanamide]
[3]; [4]
  ED50: 3.3 ± 0.4 mg/kg
[3]; [5]
  ED50: 4 ± 0.6 mg/kg
[3]; [6]
  Seminal Vesicles weight: 31.1 ± 0.9 (5) mg/100 g body weight
  Ventral Prostate weight: 78.9 ± 3.5 (5) mg/100 g body weight
[3]; [7]
  Seminal Vesicles weight: 27.9 ± 2.5 (5) mg/100 g body weight
  Ventral Prostate weight: 73.1 ± 4.6 (5) mg/100 g body weight
[3]; [8]
  Seminal Vesicles weight: 22.7 ± 0.9 (5) mg/100 g body weight
  Ventral Prostate weight: 62.4 ± 3.7 (5) mg/100 g body weight
[3]; [9]
  Seminal Vesicles weight: 12.4 ± 1.8 (5) mg/100 g body weight
  Ventral Prostate weight: 43.0 ± 3.6 (5) mg/100 g body weight
[3]; [10]
  Seminal Vesicles weight: 9.1 ± 1.3 (5) mg/100 g body weight
  Ventral Prostate weight: 28.4 ± 3.1 (5) mg/100 g body weight
[3]; [11]
  Seminal Vesicles weight: 9.9 ± 0.4 (5) mg/100 g body weight
  Ventral Prostate weight: 29.9 ± 1.8 (5) mg/100 g body weight
[3]
  effect on ventral prostate and seminal vesicle weights (in words): dose-dependent decrease

## CCC1CCNc2c1cc1c(C(F)(F)F)cc(=O)[nH]c1c2[N+](=O)[O-] (racemic) [Compound 124, (R/S)-4-Ethyl-1,2,3,4-tetrahydro-10-nitro-6-(trifluoromethyl)-8-pyridono[5,6-g]quinoline]
Human AR [1]; agonist mode, percent maximal response relative to reference agonist DHT, na = not active (efficacy < 10 and potency > 10,000)
  AR Agonist CV-1 Cells Efficacy: 50 ± 1%
Human AR [1]
  EC50: 202 ± 18 nM

## CC1(C)CCc2cc3c(C(F)(F)F)c([N+](=O)[O-])c(=O)[nH]c3c([N+](=O)[O-])c2N1 [Compound 126, 1,2,3,4-Tetrahydro-2,2-dimethyl-7,10-dinitro-6-(trifluoromethyl)-8-pyridono[5,6-g]quinoline]
Human AR [1]
  IC50: 5240 ± 363 nM
Human AR [1]; [12]
  AR Antagonist CV-1 Cells Efficacy: 44 ± 2 %
